# From PubChem BioAssay AID2060335 (Molecular Pharmacology Branch, DTP, NCI, 2025)
# pIC50: −log10 of the molar value.
# System: DU-145 multicell spheroids with HUVEC/MSC, viability
# Assay: Anticancer human tumor DU-145 cell line growth inhibition [IpAb];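 also: spheroids exposed to agents for seven days before measurement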;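 as to viability, T/C: percent of DMSO vehicle control viability so 100% = untreated level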
# Details: for pIC50: curve of first compound; for viability, T/C: stronger effect = lower value
# Method in brief: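 Multi-cell spheroids of 60% tumour cells, 25% HUVEC and 15% MSC in ultra-low-attachment U-bottom wells, treated with agents combined with ipatasertib or abemaciclib. Half-log ranges top out near clinical Cmax, or 10 microM when Cmax is unknown.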
# [1] = second compound 0.01 µM, first compound 0.0316 µM
# [2] = second compound 0.01 µM, first compound 0.1 µM
# [3] = second compound 0.01 µM, first compound 0.316 µM
# [4] = second compound 0.01 µM, first compound 1 µM
# [5] = second compound 0.01 µM, first compound 3.16 µM
# [6] = second compound 0.01 µM, first compound 10 µM
# [7] = second compound 0.0316 µM, first compound 0.0316 µM
# [8] = second compound 0.0316 µM, first compound 0.1 µM
# [9] = second compound 0.0316 µM, first compound 0.316 µM
# [10] = second compound 0.0316 µM, first compound 1 µM
# [11] = second compound 0.0316 µM, first compound 3.16 µM
# [12] = second compound 0.0316 µM, first compound 10 µM
# [13] = second compound 0.1 µM, first compound 0.0316 µM
# [14] = second compound 0.1 µM, first compound 0.1 µM
# [15] = second compound 0.1 µM, first compound 0.316 µM
# [16] = second compound 0.1 µM, first compound 1 µM
# [17] = second compound 0.1 µM, first compound 3.16 µM
# [18] = second compound 0.1 µM, first compound 10 µM
# [19] = second compound 0.316 µM, first compound 0.0316 µM
# [20] = second compound 0.316 µM, first compound 0.1 µM
# [21] = second compound 0.316 µM, first compound 0.316 µM
# [22] = second compound 0.316 µM, first compound 1 µM
# [23] = second compound 0.316 µM, first compound 3.16 µM
# [24] = second compound 0.316 µM, first compound 10 µM
# [25] = second compound 1 µM, first compound 0.0316 µM
# [26] = second compound 1 µM, first compound 0.1 µM
# [27] = second compound 1 µM, first compound 0.316 µM
# [28] = second compound 1 µM, first compound 1 µM
# [29] = second compound 1 µM, first compound 3.16 µM
# [30] = second compound 1 µM, first compound 10 µM
structure (smiles),measurement,setting,value
C=CCn1c(=O)c2cnc(Nc3ccc(N4CCN(C)CC4)cc3)nc2n1-c1cccc(C(C)(C)O)n1 + CCN1CCN(Cc2ccc(Nc3ncc(F)c(-c4cc(F)c5nc(C)n(C(C)C)c5c4)n3)nc2)CC1,pIC50,second compound 0.01 µM,6.85
same,pIC50,second compound 0.0316 µM,7.05
same,pIC50,second compound 0.1 µM,7.19
same,pIC50,second compound 0.316 µM,7.25
same,pIC50,second compound 1 µM,7.02
same,"viability, T/C",[1],85.5%
same,"viability, T/C",[2],61.3%
same,"viability, T/C",[3],21.9%
same,"viability, T/C",[4],17%
same,"viability, T/C",[5],10.1%
same,"viability, T/C",[6],9.83%
same,"viability, T/C",[7],75.3%
same,"viability, T/C",[8],47.6%
same,"viability, T/C",[9],21.7%
same,"viability, T/C",[10],16.9%
same,"viability, T/C",[11],10.7%
same,"viability, T/C",[12],8.6%
same,"viability, T/C",[13],69.7%
same,"viability, T/C",[14],37%
same,"viability, T/C",[15],21.9%
same,"viability, T/C",[16],16.1%
same,"viability, T/C",[17],9.64%
same,"viability, T/C",[18],9.46%
same,"viability, T/C",[19],58.7%
same,"viability, T/C",[20],40.9%
same,"viability, T/C",[21],25.2%
same,"viability, T/C",[22],14.9%
same,"viability, T/C",[23],9.9%
same,"viability, T/C",[24],10.9%
same,"viability, T/C",[25],57.3%
same,"viability, T/C",[26],50.5%
same,"viability, T/C",[27],27.1%
same,"viability, T/C",[28],14.2%
same,"viability, T/C",[29],7.82%
same,"viability, T/C",[30],8.53%
CC(C)n1nc(-c2ccc3oc(N)nc3c2)c2c(N)ncnc21 + CCN1CCN(Cc2ccc(Nc3ncc(F)c(-c4cc(F)c5nc(C)n(C(C)C)c5c4)n3)nc2)CC1,pIC50,second compound 0.01 µM,8.72
same,pIC50,second compound 0.0316 µM,8.83
same,pIC50,second compound 0.1 µM,8.84
same,pIC50,second compound 0.316 µM,8.74
same,pIC50,second compound 1 µM,8.73
same,"viability, T/C","second compound 0.01 µM, first compound 0.000316 µM",97.3%
same,"viability, T/C","second compound 0.01 µM, first compound 0.001 µM",64.2%
same,"viability, T/C","second compound 0.01 µM, first compound 0.00316 µM",39.3%
same,"viability, T/C","second compound 0.01 µM, first compound 0.01 µM",21.2%
same,"viability, T/C",[1],11.3%
same,"viability, T/C",[2],9.72%
same,"viability, T/C","second compound 0.0316 µM, first compound 0.000316 µM",82.2%
same,"viability, T/C","second compound 0.0316 µM, first compound 0.001 µM",56%
same,"viability, T/C","second compound 0.0316 µM, first compound 0.00316 µM",38.5%
same,"viability, T/C","second compound 0.0316 µM, first compound 0.01 µM",19.9%
same,"viability, T/C",[7],11.7%
same,"viability, T/C",[8],8.9%
same,"viability, T/C","second compound 0.1 µM, first compound 0.000316 µM",76.9%
same,"viability, T/C","second compound 0.1 µM, first compound 0.001 µM",56.2%
same,"viability, T/C","second compound 0.1 µM, first compound 0.00316 µM",36.9%
same,"viability, T/C","second compound 0.1 µM, first compound 0.01 µM",23.9%
same,"viability, T/C",[13],12.9%
same,"viability, T/C",[14],9.08%
same,"viability, T/C","second compound 0.316 µM, first compound 0.000316 µM",69.2%
same,"viability, T/C","second compound 0.316 µM, first compound 0.001 µM",58.8%
same,"viability, T/C","second compound 0.316 µM, first compound 0.00316 µM",40.9%
same,"viability, T/C","second compound 0.316 µM, first compound 0.01 µM",31.5%
same,"viability, T/C",[19],16%
same,"viability, T/C",[20],12.5%
same,"viability, T/C","second compound 1 µM, first compound 0.000316 µM",60.3%
same,"viability, T/C","second compound 1 µM, first compound 0.001 µM",56.5%
same,"viability, T/C","second compound 1 µM, first compound 0.00316 µM",44.4%
same,"viability, T/C","second compound 1 µM, first compound 0.01 µM",33.8%
same,"viability, T/C",[25],25.1%
same,"viability, T/C",[26],20.3%
CC1(C)CCC(CN2CCN(c3ccc(C(=O)NS(=O)(=O)c4ccc(NCC5CCOCC5)c([N+](=O)[O-])c4)c(Oc4cnc5[nH]ccc5c4)c3)CC2)=C(c2ccc(Cl)cc2)C1 + CCN1CCN(Cc2ccc(Nc3ncc(F)c(-c4cc(F)c5nc(C)n(C(C)C)c5c4)n3)nc2)CC1,pIC50,second compound 0.01 µM,5.31
same,pIC50,second compound 0.0316 µM,5.39
same,pIC50,second compound 0.1 µM,5.38
same,pIC50,second compound 0.316 µM,5.44
same,pIC50,second compound 1 µM,5.46
same,"viability, T/C",[1],108%
same,"viability, T/C",[2],104%
same,"viability, T/C",[3],103%
same,"viability, T/C",[4],99.8%
same,"viability, T/C",[5],70.2%
same,"viability, T/C",[6],16.7%
same,"viability, T/C",[7],95.8%
same,"viability, T/C",[8],101%
same,"viability, T/C",[9],97%
same,"viability, T/C",[10],90.4%
same,"viability, T/C",[11],61.5%
same,"viability, T/C",[12],11.1%
same,"viability, T/C",[13],94.8%
same,"viability, T/C",[14],102%
same,"viability, T/C",[15],92%
same,"viability, T/C",[16],78.9%
same,"viability, T/C",[17],64.3%
same,"viability, T/C",[18],13.5%
same,"viability, T/C",[19],84%
same,"viability, T/C",[20],88.2%
same,"viability, T/C",[21],80.3%
same,"viability, T/C",[22],72.5%
same,"viability, T/C",[23],56.7%
same,"viability, T/C",[24],10.8%
same,"viability, T/C",[25],71.3%
same,"viability, T/C",[26],72.8%
same,"viability, T/C",[27],68.3%
same,"viability, T/C",[28],69.5%
same,"viability, T/C",[29],52.2%
same,"viability, T/C",[30],12.3%
CCCS(=O)(=O)Nc1ccc(F)c(C(=O)c2c[nH]c3ncc(-c4ccc(Cl)cc4)cc23)c1F + CCN1CCN(Cc2ccc(Nc3ncc(F)c(-c4cc(F)c5nc(C)n(C(C)C)c5c4)n3)nc2)CC1,pIC50,second compound 0.01 µM,< 5.00
same,pIC50,second compound 0.0316 µM,< 5.00
same,pIC50,second compound 0.1 µM,< 5.00
same,pIC50,second compound 0.316 µM,< 5.00
same,pIC50,second compound 1 µM,< 5.00
same,"viability, T/C",[1],107%
same,"viability, T/C",[2],107%
same,"viability, T/C",[3],102%
same,"viability, T/C",[4],115%
same,"viability, T/C",[5],106%
same,"viability, T/C",[6],79.8%
same,"viability, T/C",[7],101%
same,"viability, T/C",[8],107%
same,"viability, T/C",[9],105%
same,"viability, T/C",[10],115%
same,"viability, T/C",[11],106%
same,"viability, T/C",[12],72.4%
same,"viability, T/C",[13],95.8%
same,"viability, T/C",[14],95.5%
same,"viability, T/C",[15],99.3%
same,"viability, T/C",[16],107%
same,"viability, T/C",[17],98.3%
same,"viability, T/C",[18],65.9%
same,"viability, T/C",[19],80.3%
same,"viability, T/C",[20],84.9%
same,"viability, T/C",[21],87.1%
same,"viability, T/C",[22],88.6%
same,"viability, T/C",[23],89.4%
same,"viability, T/C",[24],52.4%
same,"viability, T/C",[25],70.1%
same,"viability, T/C",[26],66.9%
same,"viability, T/C",[27],67%
same,"viability, T/C",[28],64.6%
same,"viability, T/C",[29],69.9%
same,"viability, T/C",[30],54.8%
Cn1cnc2c(F)c(Nc3ccc(Br)cc3Cl)c(C(=O)NOCCO)cc21 + CCN1CCN(Cc2ccc(Nc3ncc(F)c(-c4cc(F)c5nc(C)n(C(C)C)c5c4)n3)nc2)CC1,pIC50,second compound 0.01 µM,6.59
same,pIC50,second compound 0.0316 µM,6.67
same,pIC50,second compound 0.1 µM,6.84
same,pIC50,second compound 0.316 µM,6.74
same,pIC50,second compound 1 µM,7.08
same,"viability, T/C","second compound 0.01 µM, first compound 0.00949 µM",80.8%
same,"viability, T/C","second compound 0.01 µM, first compound 0.03 µM",74.8%
same,"viability, T/C","second compound 0.01 µM, first compound 0.0949 µM",56.1%
same,"viability, T/C","second compound 0.01 µM, first compound 0.3 µM",50.7%
same,"viability, T/C","second compound 0.01 µM, first compound 0.949 µM",42.8%
same,"viability, T/C","second compound 0.01 µM, first compound 3 µM",38.6%
same,"viability, T/C","second compound 0.0316 µM, first compound 0.00949 µM",71%
same,"viability, T/C","second compound 0.0316 µM, first compound 0.03 µM",64.5%
same,"viability, T/C","second compound 0.0316 µM, first compound 0.0949 µM",53.5%
same,"viability, T/C","second compound 0.0316 µM, first compound 0.3 µM",46.7%
same,"viability, T/C","second compound 0.0316 µM, first compound 0.949 µM",44.5%
same,"viability, T/C","second compound 0.0316 µM, first compound 3 µM",34.4%
same,"viability, T/C","second compound 0.1 µM, first compound 0.00949 µM",67.4%
same,"viability, T/C","second compound 0.1 µM, first compound 0.03 µM",57.6%
same,"viability, T/C","second compound 0.1 µM, first compound 0.0949 µM",53.8%
same,"viability, T/C","second compound 0.1 µM, first compound 0.3 µM",46.3%
same,"viability, T/C","second compound 0.1 µM, first compound 0.949 µM",39.9%
same,"viability, T/C","second compound 0.1 µM, first compound 3 µM",37.1%
same,"viability, T/C","second compound 0.316 µM, first compound 0.00949 µM",61.5%
same,"viability, T/C","second compound 0.316 µM, first compound 0.03 µM",56.3%
same,"viability, T/C","second compound 0.316 µM, first compound 0.0949 µM",52.8%
same,"viability, T/C","second compound 0.316 µM, first compound 0.3 µM",45.9%
same,"viability, T/C","second compound 0.316 µM, first compound 0.949 µM",47.4%
same,"viability, T/C","second compound 0.316 µM, first compound 3 µM",39.2%
same,"viability, T/C","second compound 1 µM, first compound 0.00949 µM",58.1%
same,"viability, T/C","second compound 1 µM, first compound 0.03 µM",54.1%
same,"viability, T/C","second compound 1 µM, first compound 0.0949 µM",48.8%
same,"viability, T/C","second compound 1 µM, first compound 0.3 µM",44.4%
same,"viability, T/C","second compound 1 µM, first compound 0.949 µM",42.1%
same,"viability, T/C","second compound 1 µM, first compound 3 µM",35%
